Experimental findings from patent publication US8163793B2, “Proline derivatives” (Hoffman-La Roche Inc., priority 2009, dated 2012) are described below.

Assay [1] addresses Cathepsin S (UniProt P25774). Briefly: Cathepsin enzyme inhibition assay (fluorogenic peptide substrate Z-Val-Val-Arg-AMC), Cathepsin S. It is filed as biochemical, human and mouse. Particulars: enzyme 1 nM, substrate 20 μM, pH 6.5; read-out: CatS IC50. The procedure, abridged:
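Compounds were combined with 1 nM human or mouse enzyme, and substrate then started the reaction. The buffer was potassium phosphate (100 mM, pH 6.5) containing EDTA-Na 5 mM, Triton X-100 0.001% and […] 5 mM.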

Assay [2] concerns the target Cat L (UniProt P07711). Briefly: Cathepsin enzyme inhibition assay (fluorogenic peptide substrate Z-Val-Val-Arg-AMC), Cathepsin L. As to conditions: enzyme 1 nM, substrate 20 μM, pH 6.5; read-out: CatL IC50. It is filed as biochemical, human and mouse. Put shortly: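 Fluorogenic cleavage of Z-Val-Val-Arg-AMC (20 μM) by 1 nM Cat L was monitored at ex 360/em 465 nm for 20 min, the linear phase. The buffer was 100 mM potassium phosphate pH 6.5 with 5 mM EDTA and DTT. IC50 values were derived by standard methods, in μM.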

Broadly, the IC50 is the concentration that gives 50% inhibition. Regarding `N#CC1(NC(=O)[C@@H]2C[C@@H](S(=O)(=O)c3ccc(-n4ccnc4)cc3Cl)CN2C(=O)C2(c3ccc(Cl)nc3)CC2)CC1` [Example 382, (2S,4R)-4-(2-Chloro-4-imidazol-1-yl-benzenesulfonyl)-1-[1-(6-chloro-pyridin-3-yl)-cyclopropanecarbonyl]-pyrrolidine-2-carboxylic acid (1-cyano-cyclopropyl)-amide], the IC50 in assay [1] came to 0.04 nM; in assay [2], 68 nM.

As to `N#CC1CCN2C[C@H](S(=O)(=O)c3ccc(F)cc3Cl)C[C@@]12C(=O)NC1(C#N)CC1` (stereo partly drawn) [Example 383, (6R,7aS)-6-(2-Chloro-4-fluoro-benzenesulfonyl)-1-cyano-tetrahydro-pyrrolizine-7a-carboxylic Acid (1-cyano-cyclopropyl)-amide], the values for the IC50 in assay [1] and in assay [2] were 14 nM and 20000 nM, respectively.

Take `N#CC1(NC(=O)[C@@H]2C[C@@H](S(=O)(=O)c3ccc(OCC(F)(F)F)cc3Cl)CN2C(=O)C2(c3ccc4c(c3)OCO4)CC2)CC1` [Example 384, (2S,4R)-1-(1-Benzo[1,3]dioxol-5-yl-cyclopropanecarbonyl)-4-[2-chloro-4-(2,2,2-trifluoro-ethoxy)-benzenesulfonyl]-pyrrolidine-2-carboxylic acid (1-cyano-cyclopropyl)-amide]: the values for the IC50 in assay [1] and in assay [2] were 0.05 nM and 100 nM, respectively.

With `Cc1cc(N2C[C@H](S(=O)(=O)c3ccc(F)cc3Cl)C[C@H]2C(=O)NC2(C#N)CC2)n(C2CCC2)n1` [Example 385, (2S,4R)-4-(2-Chloro-4-fluoro-benzenesulfonyl)-1-(2-cyclobutyl-5-methyl-2H-pyrazol-3-yl)-pyrrolidine-2-carboxylic acid (1-cyano-cyclopropyl)-amide], the IC50 in assay [1] worked out at 0.54 nM; in assay [2], 6460 nM.

On to `Cn1nc(C(C)(C)C)cc1C(=O)N1C[C@H](S(=O)(=O)c2ccc(OCC(F)(F)F)cc2Cl)C[C@H]1C(=O)NC1(C#N)CC1` [Example 386, (2S,4R)-1-(5-tert-Butyl-2-methyl-2H-pyrazole-3-carbonyl)-4-[2-chloro-4-(2,2,2-trifluoro-ethoxy)-benzenesulfonyl]-pyrrolidine-2-carboxylic acid (1-cyano-cyclopropyl)-amide], for which the 50% inhibitory concentration (IC50) in assay [1] amounted to 1.75 nM; in assay [2], 4030 nM.

`COc1ccc(S(=O)(=O)[C@@H]2C[C@@H](C(=O)NC3(C#N)CC3)N(C(=O)OC(C)(C)C)C2)c(Cl)c1` [Example 387, (2S,4R)-4-(2-Chloro-4-methoxy-benzenesulfonyl)-2-(1-cyano-cyclopropylcarbamoyl)-pyrrolidine-1-carboxylic acid tert-butyl ester]: the figures for the concentration for half-maximal inhibition (IC50) in assay [1] and in assay [2] were 6.7 nM and 52500 nM, respectively.

As for `Cc1cc(N2C[C@H](S(=O)(=O)c3ccc(F)cc3C(F)(F)F)C[C@H]2C(=O)NC2(C#N)CC2)n(C2CCC2)n1` [Example 388, (2S,4R)-1-(2-Cyclobutyl-5-methyl-2H-pyrazol-3-yl)-4-(4-fluoro-2-trifluoromethyl-benzenesulfonyl)-pyrrolidine-2-carboxylic acid (1-cyano-cyclopropyl)-amide], the IC50 in assay [1] was determined as 0.48 nM; in assay [2], 35600 nM.

Consider `Cc1cc(N2C[C@H](S(=O)(=O)c3ccc(N4CCN(C)CC4)cc3C(F)(F)F)C[C@H]2C(=O)NC2(C#N)CC2)n(C2CCC2)n1` [Example 389, (2S,4R)-1-(2-Cyclobutyl-5-methyl-2H-pyrazol-3-yl)-4-[4-(4-methyl-piperazin-1-yl)-2-trifluoromethyl-benzenesulfonyl]-pyrrolidine-2-carboxylic acid (1-cyano-cyclopropyl)-amide], for which the IC50 in assay [1] is 0.2 nM; in assay [2], 8060 nM.

As to `N#CC1(NC(=O)[C@@H]2C[C@@H](S(=O)(=O)c3ccc(OCC(F)(F)F)cc3Cl)CN2C(=O)C2(c3cccc4ccccc34)OCCO2)CC1` [Example 390, (2S,4R)-4-[2-Chloro-4-(2,2,2-trifluoro-ethoxy)-benzenesulfonyl]-1-(2-naphthalen-1-yl-[1,3]dioxolane-2-carbonyl)-pyrrolidine-2-carboxylic acid (1-cyano-cyclopropyl)-amide], the IC50 amounted to 0.83 nM in assay [1] and 120 nM in assay [2].
